Legend:
[1] = test system: p300- and Tat-mediated transactivation of HIV transcription; assay: HIV-1 LTR luciferase reporter assay in Hela cells co-transfected with Tat and p300; type: cell-based
Procedure: An HIV-1 LTR promoter plasmid linked to a luciferase reporter plasmid, with or without the expression vector for HIV-1 Tat and p300, was transfected into cells. Cells were treated with sodium salicylate at same time of transfection. 36 hours later, the cells were lysed with passive lysis buffer (Promega), and luciferase activity was measured using a luminometer.
The effect of diflunisal on HIV transcription was tested. A plasmid containing HIV-1 driving the luciferase reporter was co-transfected into Hela cells with or without expression vectors encoding Tat and/or p300. Co-transfection of the HIV LTR with either Tat or p300 enhanced LTR activity 4 fold (FIG. 2) and 12 fold (FIG. 2) respectively. Co-expression of both Tat and p300 synergistically activated the HIV promoter 48 fold (FIG. 2). […] The IC50 for this inhibition was 80 μM.

[2] = test system: Activated CD4 T-cells; assay: Cell toxicity in the HIV replication assay (FIG. 4A); settings: 50 μM, or 100 μM diflunisal
[3] = test system: VSV-G envelope pseudotyped NL4-3 luciferase reporter viruses; assay: microbe, parasite or virus in culture; type: cell-based, HIV
[4] = test system: replication-competent NL4-3/GFP virus; assay: HIV replication assay (GFP positive cells by flow cytometry); type: cell-based; settings: activated CD4 T-cells, MOI of 0.3, 50 μM, or 100 μM diflunisal, collected every 2 to 3 days
[5] = cited from earlier work
[6] = target: recombinant p300 (Homo sapiens, UniProt Q09472); assay: In vitro HAT assay (histone acetylation, 14C acetyl CoA, autoradiography); type: biochemical; settings: 1 μg recombinant p300, 10 μg Histone, pre-incubation 30° C. 30 min, densitometry; read-out: IC50 of inhibition of histone acetylation by p300
Chain of recombinant p300 (Q09472 whole entry, species assumed): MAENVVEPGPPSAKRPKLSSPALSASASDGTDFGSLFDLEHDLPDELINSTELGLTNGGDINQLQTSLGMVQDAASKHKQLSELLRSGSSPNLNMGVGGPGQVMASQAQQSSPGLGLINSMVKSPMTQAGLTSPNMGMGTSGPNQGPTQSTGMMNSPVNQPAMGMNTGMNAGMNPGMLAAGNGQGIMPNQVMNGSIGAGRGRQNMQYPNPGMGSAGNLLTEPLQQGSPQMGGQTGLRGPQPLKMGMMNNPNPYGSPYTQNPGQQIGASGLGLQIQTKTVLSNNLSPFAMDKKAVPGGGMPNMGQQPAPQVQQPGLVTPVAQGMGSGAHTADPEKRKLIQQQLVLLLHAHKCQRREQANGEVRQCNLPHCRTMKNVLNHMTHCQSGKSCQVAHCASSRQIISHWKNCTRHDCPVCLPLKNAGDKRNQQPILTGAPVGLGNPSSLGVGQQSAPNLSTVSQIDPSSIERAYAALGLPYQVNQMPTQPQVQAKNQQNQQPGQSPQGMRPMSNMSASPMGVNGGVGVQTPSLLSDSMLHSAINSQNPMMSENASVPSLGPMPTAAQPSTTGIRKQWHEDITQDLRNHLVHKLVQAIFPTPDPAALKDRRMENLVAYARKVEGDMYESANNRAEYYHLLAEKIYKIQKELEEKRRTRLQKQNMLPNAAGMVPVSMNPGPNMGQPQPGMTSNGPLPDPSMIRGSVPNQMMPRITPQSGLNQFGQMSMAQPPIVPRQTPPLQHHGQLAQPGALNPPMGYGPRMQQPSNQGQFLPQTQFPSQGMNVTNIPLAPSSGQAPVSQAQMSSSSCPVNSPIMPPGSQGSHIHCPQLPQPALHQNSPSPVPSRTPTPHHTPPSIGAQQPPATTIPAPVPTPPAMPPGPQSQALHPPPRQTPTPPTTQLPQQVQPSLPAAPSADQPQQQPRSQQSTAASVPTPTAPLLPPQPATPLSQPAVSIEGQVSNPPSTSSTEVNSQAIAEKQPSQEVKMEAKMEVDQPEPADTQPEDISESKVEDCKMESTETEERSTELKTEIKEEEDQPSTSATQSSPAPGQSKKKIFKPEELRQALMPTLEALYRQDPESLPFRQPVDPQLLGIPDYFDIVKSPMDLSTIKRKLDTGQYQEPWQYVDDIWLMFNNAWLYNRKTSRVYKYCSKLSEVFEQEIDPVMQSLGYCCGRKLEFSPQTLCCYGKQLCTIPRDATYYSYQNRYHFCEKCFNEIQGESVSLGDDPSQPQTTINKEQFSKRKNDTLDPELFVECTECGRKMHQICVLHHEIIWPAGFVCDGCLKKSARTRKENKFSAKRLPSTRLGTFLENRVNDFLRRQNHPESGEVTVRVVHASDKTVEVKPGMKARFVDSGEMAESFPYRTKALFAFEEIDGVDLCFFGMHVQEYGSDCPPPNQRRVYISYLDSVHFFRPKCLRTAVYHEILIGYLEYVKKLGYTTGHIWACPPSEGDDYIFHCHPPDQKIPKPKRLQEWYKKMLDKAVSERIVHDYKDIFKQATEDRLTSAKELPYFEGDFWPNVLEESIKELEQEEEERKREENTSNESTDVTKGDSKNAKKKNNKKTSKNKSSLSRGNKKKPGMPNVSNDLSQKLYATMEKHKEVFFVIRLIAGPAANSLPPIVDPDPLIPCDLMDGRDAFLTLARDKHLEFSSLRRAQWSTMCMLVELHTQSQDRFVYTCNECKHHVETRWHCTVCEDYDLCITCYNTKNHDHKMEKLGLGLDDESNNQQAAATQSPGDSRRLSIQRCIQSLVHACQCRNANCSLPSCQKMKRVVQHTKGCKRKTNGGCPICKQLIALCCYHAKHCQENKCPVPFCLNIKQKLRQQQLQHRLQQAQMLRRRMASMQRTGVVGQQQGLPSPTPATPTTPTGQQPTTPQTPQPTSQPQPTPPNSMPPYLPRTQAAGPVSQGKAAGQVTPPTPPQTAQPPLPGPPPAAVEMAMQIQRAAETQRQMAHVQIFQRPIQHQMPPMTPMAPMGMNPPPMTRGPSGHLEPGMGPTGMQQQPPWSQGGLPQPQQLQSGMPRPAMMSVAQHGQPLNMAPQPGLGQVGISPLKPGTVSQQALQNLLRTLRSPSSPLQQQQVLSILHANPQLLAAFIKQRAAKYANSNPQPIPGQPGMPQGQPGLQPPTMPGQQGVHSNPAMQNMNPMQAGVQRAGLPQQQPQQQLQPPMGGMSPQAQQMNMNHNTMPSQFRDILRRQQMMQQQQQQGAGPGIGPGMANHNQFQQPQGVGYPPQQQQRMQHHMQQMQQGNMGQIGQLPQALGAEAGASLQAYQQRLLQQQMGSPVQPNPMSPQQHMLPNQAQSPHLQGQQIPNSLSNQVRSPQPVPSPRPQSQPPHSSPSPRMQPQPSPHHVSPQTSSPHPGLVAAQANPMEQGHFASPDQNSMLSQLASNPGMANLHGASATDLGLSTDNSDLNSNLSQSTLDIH
Procedure: 1 μg of HAT proteins (p300, CBP, pCAF, GCN5) and 10 μg of Histone were pre-incubated with or without sodium salicylate at various doses in an appropriate buffer (50 mM Hepes, pH 8.0, 10% Glycerol, 1 mM dithiothreitol (DTT)) at 30° C. for 30 min. After the pre-incubation period, 0.05 μCi of ^14C labeled acetyl CoA was added; the mixture was incubated for 1 hour. Samples were subjected to sodium dodecyl sulfate-polyacrylamide electrophoresis (SDS-PAGE). After electrophoresis, the gels were dried. Acetylation signals were detected in the dried gels by autoradiography. Band densities were measured by Image™ software (http://rsbweb(dot)nih(dot)gov/ij/); and the relative histone acetylation was plotted.
1 μg of recombinant p300 and 10 μg of Histone were pre-incubated with or without diflunisal at various doses in an appropriated buffer (50 mM Hepes, pH 8.0, 10% Glycerol, 1 mM DTT) at 30° C. for 30 min. 0.05 μCi of ^14C-labeled acetylCoA was then added, and the mixture was incubated for 1 hour. Histones were separated by SDS-PAGE (FIG. 1, bottom panel). Acetylation of Histone H3 and H4 were detected by autoradiography (FIG. 1, middle panel). […] Three different experimental systems were used to test the effect of diflunisal on HIV transcription and replication.

**Q.** For `O=C(O)c1cc(-c2ccc(F)cc2F)ccc1O` [Diflunisal, 2′,4′-difluoro-4-hydroxy-3-biphenylcarboxylic acid], which IC50 ([1]; Human immunodeficiency virus 1, HeLa, read-out: IC50 for inhibition of p300- and Tat-mediated transactivation of HIV transcription) is on record?
**A.** 80 µM

**Q.** What about the “Block of p300- and Tat-mediated transactivation of HIV transcription” value ([1]; at 0.3 mM, Hela cells) of the same compound?
**A.** completely blocked

**Q.** And the “Cell toxicity (FIG. 4A)” value [2]?
**A.** did not show cell toxicity

**Q.** What about the “Inhibition of HIV infection (FIG. 3)” value [3] of the same compound?
**A.** inhibited HIV infection in a dose dependent manner

**Q.** What about the IC50 ([3]; Human immunodeficiency virus 1, NL43, T-cell, 24 h, read-out: IC50 for inhibition of HIV infection) of the same compound?
**A.** 148 µM

**Q.** And the “Percentage of infected cells (GFP positive cells), FIG. 4B” value [4]?
**A.** suppressed and delayed peak of infection in a dose dependent manner

**Q.** What about the Plasma trough concentrations ([5]; clinical dosage 0.5-1.0 gram per day) of the same compound?
**A.** 100 to 300 µM

**Q.** And the Bioavailability ([5]; in vivo)?
**A.** 80-90%

**Q.** What about the Half-life ([5]; in vivo) of the same compound?
**A.** 8 to 12 h

**Q.** What about the IC50 [6] of the same compound?
**A.** 1.24 mM

From patent US20140303074A1, “Compositions and Methods For Inhibiting Immunodeficiency Virus Transcription” (The J. David Gladstone Institutes, priority 2011, published 2014)
